{
  "source": "patent US20120289567A1",
  "about": "“COMBINATIONS OF DARIFENACIN AND SALIVARY STIMULANTS FOR THE TREATMENT OF OVERACTIVE BLADDER” (THERAVIDA, INC., priority 2011, published 2012)",
  "origin": "cited, not measured here",
  "conditions": "5 mg of pilocarpine",
  "data": [
    {"compound": "CC[C@@H]1C(=O)OC[C@@H]1Cc1cncn1C", "note": "[pilocarpine]", "values": [
      {"measurement": "time of maximum saliva output after administration", "value": "about 30 minutes"}
    ]}
  ]
}
